# Literature values, collected in US20090253744A1, “Acylated piperidine derivatives as melanocortin-4 receptor modulators” (priority 2006, published 2009).
# Columns and labels:
# erectile dysfunction = details: in vivo
# [1] = tested on: males with psychogenic erectile dysfunction; details: injected intramuscularly or subcutaneously
Compound,effective in % of patients (erectile dysfunction),response rate [1] [%]
CCCc1nn(C)c2c(=O)[nH]c(-c3cc(S(=O)(=O)N4CCN(C)CC4)ccc3OCC)nc12 [Sildenafil],about 70%,
Ac-Nle-c[Asp-His-DPhe-Arg-Trp-Lys]-NH2 [MT-II],,75
